From patent publication US20260118345A1, “METHOD OF EVALUATING INTERCELLULAR INTERACTIONS IN NEUROINFLAMMATION” (FUJIFILM Corporation, priority 2023, published 2026) come the findings set out here.

Type in all cases: cell-based, human
The subject of assay [1] is two-cell-type co-culture of neurons and astrocytes. The assay can be described thus: Neural activity by calcium imaging (BPM), two-dimensional two-cell-type co-culture of neurons and astrocytes. The conditions noted are these: 24 hours after stimulation (TNF-α 7.5 ng/mL or LPS 100 ng/mL). The protocol: Matrigel basement membrane matrix (Corning, 356234) diluted 120-fold with DMEM/F12 (Life technologies, 11320-033) was added to a 96-well plate at 65 μL/well and allowed to stand at 4° C. After 24 hours, the culture medium was replaced with a progenitor cell culture medium and used. Astrocyte precursor cells (XCell Science, XCS-AP-001-1V) were seeded in a 96-well plate at a density of 6×10^4 cells/well, cultured under the conditions of 37° C. and 5% CO2, after culture medium was replaced with the differentiation induction culture medium, further cultured for 5 days to differentiate into astrocytes. […] After centrifugation, the supernatant was removed, the cells were suspended in 1 mL of the co-culture medium, and the number of cells was counted. […] In addition, at 24 hours after the stimulation with LPS or TNF-α, the neural activity was evaluated by calcium imaging. […] After incubating for 1 hour under conditions of 37° C. and 5% CO2, the solution was replaced with a warmed (37° C.) recording solution, and the fluorescence was measured for 10 minutes with FDSS (registered trademark)/μcell (Hamamatsu Photonics K. K., C13299). The neural activity was evaluated by quantifying the number of peaks of calcium oscillation using Wave Checker Software (Hamamatsu Photonics K. K.).

Assay [2] concerns NF-κB. Kind of assay: NF-κB localization after TNF-α stimulation, two-dimensional two-cell-type co-culture of neurons and astrocytes. As to conditions: TNF-α 7.5 ng/mL; 3 hours after the stimulation. The protocol: (§1) Matrigel basement membrane matrix (Corning, 356234) diluted 120-fold with DMEM/F12 (Life technologies, 11320-033) was added to a 96-well plate at 65 μL/well and allowed to stand at 4° C. After 24 hours, the culture medium was replaced with a progenitor cell culture medium and used.
Astrocyte precursor cells (XCell Science, XCS-AP-001-1V) were seeded in a 96-well plate at a density of 6×10^4 cells/well, cultured under the conditions of 37° C. and 5% CO2, after culture medium was replaced with the differentiation induction culture medium, further cultured for 5 days to differentiate into astrocytes.
The neurons were produced by forcibly expressing the Ngn2 genes from the iPS cells and the cells that had been frozen and stored were used. The cells that had been frozen and stored were thawed in a warm bath at 37° C., and after thawing, the cells were added to the co-culture medium and centrifuged at 600×g at room temperature for 5 minutes. After centrifugation, the supernatant was removed, the cells were suspended in 1 mL of the co-culture medium, and the number of cells was counted.
In the two-cell-type co-culture, the neurons were seeded on the astrocytes at 3×10^4 cells/well. […]
After 3 hours of the stimulation with TNF-α, the cells were fixed by the method described in <1> of Test Example 1, and the localization of NF-κB was evaluated by the same method as in <1> of Test Example 1.

In assay [3] the test system is three-cell-type co-culture of neurons, astrocytes, and microglia. Kind of assay: Neural activity by calcium imaging (BPM), two-dimensional three-cell-type co-culture of neurons, astrocytes and microglia. As to conditions: 24 hours after stimulation (TNF-α 7.5 ng/mL or LPS 100 ng/mL). The protocol: Matrigel basement membrane matrix (Corning, 356234) diluted 120-fold with DMEM/F12 (Life technologies, 11320-033) was added to a 96-well plate at 65 μL/well and allowed to stand at 4° C. After 24 hours, the culture medium was replaced with a progenitor cell culture medium and used. Astrocyte precursor cells (XCell Science, XCS-AP-001-1V) were seeded in a 96-well plate at a density of 6×10^4 cells/well, cultured under the conditions of 37° C. and 5% CO2, after culture medium was replaced with the differentiation induction culture medium, further cultured for 5 days to differentiate into astrocytes. […] After centrifugation, the supernatant was removed, the cells were suspended in 1 mL of the co-culture medium, and the number of cells was counted. […] After centrifugation, the supernatant was removed, the cells were suspended in 1 mL of the co-culture medium, and the number of cells was counted. […] In addition, at 24 hours after the stimulation with LPS or TNF-α, the neural activity was evaluated by calcium imaging. […] After incubating for 1 hour under conditions of 37° C. and 5% CO2, the solution was replaced with a warmed (37° C.) recording solution, and the fluorescence was measured for 10 minutes with FDSS (registered trademark)/μcell (Hamamatsu Photonics K. K., C13299). […]

Assay [4] relates to NF-κB. The assay can be described thus: NF-κB localization by immunostaining after LPS stimulation, two-dimensional three-cell-type co-culture of astrocytes, neurons and microglia. As to conditions: R-7050 10 μmol/L with LPS 100 ng/ml. The protocol:
as §1
Astrocyte precursor cells (XCell Science, XCS-AP-001-1V) were seeded in a 96-well plate at a density of 5×10^4 cells/well and cultured under the conditions of 37° C. and 5% CO2. The next day, the culture medium was replaced with the differentiation-inducing culture medium and further cultured for 5 days to differentiate into astrocytes.
The neurons were produced by forcing expression of the Ngn2 gene from iPS cells (WO2014/148646A; and Zhang Y, et al., Neuron, 78:785-98, 2013), and the cells that had been frozen and stored were used. The cells that had been frozen and stored were thawed in a warm bath at 37° C., and after thawing, the cells were added to the co-culture medium and centrifuged at 600×g at room temperature for 5 minutes. After centrifugation, the supernatant was removed, the cells were suspended in 1 mL of the co-culture medium, and the number of cells was counted.
As the microglia, iPS cell-derived microglia (iCell (registered trademark) Microglia, FCDI, C1110) were used. The cells that had been frozen and stored were thawed in a warm bath at 37° C., and after thawing, the cells were added to the co-culture medium and centrifuged at 600×g at room temperature for 5 minutes. After centrifugation, the supernatant was removed, the cells were suspended in 1 mL of the co-culture medium, and the number of cells was counted.
The neurons and the microglia were mixed in a ratio of 3:1 and seeded on the astrocytes at 4×10^4 cells/well. The cells were cultured under the conditions of 37° C. and 5% CO2, and half of the culture medium was replaced three times a week.
Microglia were specifically stimulated by adding LPS (FUJIFILM Wako Pure Chemical Corporation, 124-05151) at 100 ng/mL to the two-dimensional co-culture that had been cultured for 4 weeks. The cells were fixed by treating, for 30 minutes, with a formaldehyde solution (FUJIFILM Wako Pure Chemical Corporation, 061-00416) diluted 10-fold with PBS(−) (FUJIFILM Wako Pure Chemical Corporation, 166-23555) without treatment, and at 0.5 hours, 1 hour, 3 hours, 6 hours, and 24 hours after the treatment.
In addition, in the two-dimensional co-culture that had been cultured for 19 days, LPS (FUJIFILM Wako Pure Chemical Corporation, 124-05151) was added at 100 ng/ml and R-7050 (Cayman Chemical Company, 16870), which is a TNFR1 inhibitor, was added at 10 μmol/L, and the effect of TNF-α on the intercellular interaction induced by LPS stimulation was evaluated. The cells were fixed by treating, for 30 minutes, with a formaldehyde solution (FUJIFILM Wako Pure Chemical Corporation, 061-00416) diluted 10-fold with PBS (−) (FUJIFILM Wako Pure Chemical Corporation, 166-23555) without treatment, and at 0.5 hours, 1 hour, 3 hours, 6 hours, and 24 hours after the treatment.
The fixed cells were washed with PBS (−), and blocking and permeabilization were performed by treating with a solution (1% BSA/0.2% Triton X-100) in which BSA (Sigma-Aldrich, A4161) and Triton (registered trademark) X-100 (BioVision, 2104-100) were diluted to 1% and 0.2% with PBS (−) for 30 minutes. […]

Regarding TNF-α, the “BPM (the number of peaks of calcium oscillation per minute) as compared with the control” value in assay [1] was “increase”. Also, in assay [2], the “nuclear translocation of NF-κB in GFAP-positive cells (astrocytes)” value was “occurred” and the “nuclear translocation of NF-κB in Neun-positive cells (neurons)” value was “not confirmed”. In addition, in assay [3], the “BPM (the number of peaks of calcium oscillation per minute) as compared with the control” value is on record as “increase”.

With `FC(F)(F)c1nnc2c(Sc3ccccc3)nc3ccc(Cl)cc3n12` [R-7050], the “activation of the microglia affecting other cells (intercellular interaction)” value in assay [4] is on record as “suppressed”. Besides, the “nuclear signals of NF-κB, co-localization with microglia marker IBA1” value in assay [4] (1, 3, and 6 hours after the LPS stimulation) was “all co-localized with IBA1”. Besides, the “nuclear translocation of NF-κB” value in assay [4] (1, 3, and 6 hours after the LPS stimulation, co-culture cultured 19 days) is given as “only some cells”.
